The term IC50 denotes the point on the concentration scale where inhibition reaches its midpoint.

The values that follow come from paper PMC11345766, “Computational Design of Pore-Forming Peptides with Potent Antimicrobial and Anticancer Activities” (Journal of Medicinal Chemistry, 2024).

A short description of data set [1]: Calcein dye leakage assay from LUVs. Type of data set: biochemical. To be noted: P:L 1:100; pH 7.4. From the text:
To verify the pore-forming mechanism of action of the designed AMPs, we performed a calcein leakage assay. […] These lipid vesicles were used as simple mimics of bacterial membranes.[58] At the lowest tested peptide-to-lipid (P:L) ratio of 1:100 (mol/mol), three mutants (LP18, LP26, and LP40) caused >90% leakage, which was higher than the leakage caused by LP1 (87%). […] At the same concentration, LP23 caused leakage equivalent to that caused by LP1. Other mutants had lower leakage activity. At a higher P:L ratio of 1:50, all the abovementioned mutants caused 100% leakage, equivalent to that caused by LP1.
Pore-forming activity was tested using a dye leakage assay measuring the leakage of self-quenching fluorescent dye calcein from POPC:POPG (1:1 mol/mol) LUVs. DiD was mixed with lipids (1:500 mol/mol), and lipid film was created by evaporating chloroform, followed by 4 h of desiccation. Dried lipid film was dissolved in calcein buffer (35 mM calcein, 25 mM NaH2PO4·H2O and Na2HPO4·7H2O (3:7 mol/mol), 20 mM NaCl, and 1 mM EDTA). After 10 freeze–thaw cycles, the sample was extruded 50 times through a 100 nm pore size polycarbonate membrane filter. Free calcein in solution was removed using a HiTrap Desalting column. The concentrations of LUVs and peptides were adjusted to 0.02 and 0.1 mM, respectively, in PBS (25 mM NaH2PO4·H2O and Na2HPO4·7H2O (3:7 mol/mol), 100 mM NaCl, and 1 mM EDTA). The investigated P/L ratio was from 1:100 to 1:10 (mol/mol). Fluorescence intensity was measured using a HORIBA Scientific Jobin Yvon FluoroLog-3 Modular Spectrofluorometer (USA). Excitation and emission wavelengths were set to 495 and 520 nm, respectively. Triton X-100 10% caused 100% leakage used for normalization.

For data set [2], the system named is E. coli (TOP10). Briefly: Broth microdilution antimicrobial susceptibility assay. The class given is cell-based, Escherichia coli. To be noted: 24 h, MHB. The method in brief: (§1)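 Bacteria were grown on MHA for 24 h, subcultured in MHB for 6 h at 37 °C and diluted to 10^6 CFU/mL. Compounds were serially diluted from 50 to 0.1 μM, inoculated and incubated for 24 h at 37 °C. MIC was the lowest concentration with no visible turbidity.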

The subject of data set [3] is S. carnosus (CCM 4838T). Briefly: microbe, parasite or virus in culture. The class given is cell-based, Staphylococcus carnosus. To be noted: CCM 4838, 24 h; read-out: Antimicrobial activity (MIC) S. carnosus (CCM 4838T). In outline: as §1
Data set [4] relates to murine macrophages RAW 264.7. To be noted: 24 h. Here is the method:
Cytotoxicity against human immortalized keratinocytes HaCaT, human alveolar basal epithelial A549 (derived from adenocarcinoma), and murine macrophages RAW 264.7 was tested using MTT [3-(4,5-dimethylthiazol-2-yl)-2,5-diphenyltetrazolium bromide] assay. Cells were cultured in Dulbecco’s modified Eagle’s medium (DMEM) containing 4 mM glutamine for HaCaT, or 2 mM glutamine for A549 and RAW 264.7 cells, supplemented with 10% heat-inactivated fetal bovine serum (FBS) and antibiotics (0.1 mg/mL penicillin and streptomycin). Nonessential amino acids (NEAA) and sodium pyruvate (1 mM) were added for macrophages. Cell lines were grown in 25 and 75 cm^2 flasks at 37 °C in a humidified atmosphere with 5% CO2. Cells were suspended in DMEM, containing glutamine, NEAA, and sodium pyruvate (as described above), supplemented with 2% FBS, plated in 96-well plates at 4 × 10^4 cells/well, and incubated at 37 °C in a 5% CO2 atmosphere. After overnight incubation, the medium was replaced with fresh DMEM supplemented with peptides at different concentrations: 2, 4, 8, 16, 32, 64, and 128 μM. Negative controls were cells without peptides. After 24 h of peptide treatment at 37 °C in a 5% CO2 atmosphere, medium was replaced with Hank’s buffer (136 mM NaCl, 0.34 mM Na2HPO4, 0.44 mM KH2PO4, 5.4 mM KCl, 4.1 mM NaHCO3, supplemented with 5.5 mM D-glucose) containing 0.5 mg/mL MTT. Mitochondrial dehydrogenases converted soluble yellow dye MTT to insoluble purple formazan. After 4 h of incubation, acidified isopropanol was added to dissolve formazan crystals and measured for OD570 using Tecan microplate reader Infinite M200 (Salzburg, Austria).

For data set [5], the system named is A. baumannii (ATCC 19606). Briefly: Neutropenic murine deep thigh infection model. To be noted: single intraperitoneal dose at 10 times the MIC; four days after treatment. The class given is in vivo, mouse. An excerpt:
Mice were euthanized 4 days postinfection (day 8).
Each experimental group comprised three mice.

Data set [6] has as its system cytoplasmic membranes of ESKAPEE pathogens. Briefly: Cytoplasmic membrane depolarization assay, DiSC3-(5). Type of data set: cell-based. To be noted: both Gram-negative and Gram-positive bacteria; peptides at their MICs. As to the method:
First, we investigated the ability of the peptides to depolarize the cytoplasmic membranes of ESKAPEE pathogens. […] Bacteria were incubated with 3,3′-dipropylthiadicarbocyanine iodide [DiSC3-(5)] dye, and the dye fluorescence was measured after peptide treatment. DiSC3-(5) is sensitive to transmembrane potential changes. It accumulates in the cytoplasmic membrane with quenched fluorescence, and when the membrane potential becomes unbalanced, the dye molecules translocate to the outside environment, resulting in increased fluorescence.[56] The three potent AMPs (LP1, LP18, and LP28) and the H-variant (LP40) depolarized the cytoplasmic membrane of both Gram-negative and Gram-positive bacteria at their MICs.
The cytoplasmic membrane depolarization activity of the peptides was determined by measuring the fluorescence of membrane-potential-sensitive dye DiSC3-(5). A. baumannii ATCC 19606, E. coli ATCC 11775, K. pneumoniae ATCC 13883, P. aeruginosa PAO1, S. aureus ATCC 12600, and E. faecium ATCC 700221 were grown to mid log phase (OD600 = 0.5) at 37 °C and then centrifuged (10,000 rpm at 4 °C for 10 min). Cells were washed twice with a buffer containing 20 mM glucose and 5 mM HEPES (pH 7.2) and diluted 1:10 (OD600 = 0.05) in a buffer with 0.1 M KCl, […], and 5 mM HEPES (pH 7.2). Fluorescence was recorded at the excitation and emission wavelengths of 622 and 670 nm, respectively. Bacterial solution (100 μL) was incubated for 15 min with 20 nM of DiSC3-(5) until fluorescence reached a plateau. Changes in transmembrane potential were monitored by observing the difference in fluorescence emission intensity after adding peptides (100 μL at their MICs) for 45 min. Assay was performed in triplicate.

Data set [7] relates to E. faecium (ATCC 700221). To be noted: resistant to vancomycin.
Description: (§2) The effect of net charge was further investigated against six reference strains of ESKAPEE pathogens (Figure 3b).
Data set [8] has as its system A. baumannii (ATCC 19606). To be noted: clinically relevant strain.
Description: as §2
Data set [9] has as its system E. coli AIC221. To be noted: Figure 3c.
Description: as §2
For data set [10], the system named is A. baumannii (Z13). To be noted: Z13, 18 h.
The conditions of data set [11]: single intraperitoneal dose at 10 times the MIC.
Protocol: Neutropenic mice were infected intramuscularly (in the right thigh) with 10^6 cells per mL of Gram-negative A. baumannii (ATCC 19606).
(a) Schematic of the deep thigh infection model in which bacteria are injected intramuscularly at day 4 and peptides are administered intraperitoneally also at day 4 to assess their anti-infective activity. Mice were euthanized 4 days postinfection (day 8). Each group consisted of six mice (n = 6), and the bacterial loads used to infect the mice derived from three different inocula. […] Polymyxin B (0.006 mg/kg) and levofloxacin (0.014 mg/kg) were used as the reference antibiotics. Statistical significance was done using one-way ANOVA followed by Dunnett’s test. Violin plots represent the median, upper quartile, and lower quartile. (c) Mouse weight was monitored to exclude possible toxic effects of the peptides.
Six-week-old female CD-1 mice (obtained from Charles River; stock number 18679700-022) underwent neutropenia induction via two intraperitoneal doses of cyclophosphamide (150 mg kg^–^1) administered with a 72 h interval. One day later, the mice received an intramuscular injection containing A. baumannii ATCC 19606 (10^6 CFU mL^–1) in the right thigh. Bacteria were cultured in LB broth, washed twice with PBS (pH 7.4), and resuspended to the desired concentration. […] Polymyxin B (0.006 mg/kg) and levofloxacin (0.014 mg/kg) were used as the reference antibiotics. Prior to each injection, mice were anesthetized with isoflurane and their respiratory rate and pedal reflexes were monitored. Subsequently, we observed the infection establishment and euthanized the mice. The infected area was excised 4 days postinfection (i.e., 8 days after the beginning of the experiment), homogenized using a bead beater for 20 min (25 Hz), and 10-fold serially diluted for CFU quantification on MacConkey agar plates. Each experimental group comprised three mice. All experiments were conducted blindly, and no animals were excluded from the analysis. Statistical significance was assessed using one-way ANOVA followed by Dunnett’s test on log10-transformed data to mitigate outlier effects; p values are reported for each group, with all groups compared to the untreated control group.

For “H-KKKKKLKKILKKLFQFINQLDNQLQDIKKKKK-OH [LP28]”, the “Calcein leakage (%) from LUVs at P:L 1:100 (mol/mol)” value in data set [1] is recorded as 74.0 ± 6.7%. For the same substance, the MIC in data set [2] came out at 0.4 µM; in data set [3], 0.4 µM; in [7], 0.8 µM; in data set [8] it was 0.8 µM; in data set [9], 0.8 µM; in [10] it was 1 µM. Further, in data set [4], the half-maximal inhibitory concentration (IC50) came to 31 µM. Further, in data set [5], the “Reduction of bacterial load” value was “did not significantly reduce the bacterial load”. Further, the “Depolarization of the cytoplasmic membrane” value in data set [6] is given as “depolarized”. In data set [11], the “Change in mouse weight” value is listed as “no significant change in mouse weight”.
